Drawing on US10155756B2, “Pyrazolo[1,5-A]pyridine compounds and use thereof” (GUANGZHOU INSTITUTES OF BIOMEDICINE AND HEALTH, CHINESE …, priority 2014, dated 2018), this text covers MIC for eight molecules.

SMILES strings stand for the structures. Values after ≈ are worked out from the molar mass of the structure shown.

This assay concerns self-luminescent tuberculosis. In words: microbe, parasite or virus in culture. Format: cell-based. The following applies: Mycobacterium tuberculosis, 72 h; read-out: MIClux.
For `O=C(NCc1ccc(N2CCC(c3ccc(OC(F)(F)F)cc3)CC2)cc1)c1cnn2ccc(Cl)cc12` [TJ170371, 5-chloro-N-(4-(4-(4-(trifluoromethoxy)phenyl)piperidine-1-yl)benzyl) pyrazolo [1,5-a] pyridine-3-carboxamide], the MIC is 1 to 10 µg/mL (≈ 1.89 to 18.9 µM).

As to `Cc1nn2ccc(C(C)C)cc2c1C(=O)NCc1ccc(N2CCC(c3ccc(OC(F)(F)F)cc3)CC2)cc1` [TJ830073, 5-isopropyl-2-methyl-N-(4-(4-(4-(trifluoromethoxy)phenyl)piperidine-1-yl)benzyl) pyrazolo [1,5-a] pyridine-3-carboxamide], the MIC was in the range of 1 to 10 µg/mL (≈ 1.82 to 18.2 µM).

Consider `Cc1ccn2nc(C)c(C(=O)NCc3ccc(N4CCC(C(F)(F)F)CC4)cc3)c2c1` [TJ830149, 2,5-dimethyl-N-(4-(4-(trifluoromethyl)piperidine-1-yl)benzyl) pyrazolo [1,5-a] pyridine-3-carboxamide], for which the MIC is under 1 µg/mL.

For the molecule `CCc1nn2ccc(Cl)cc2c1C(=O)NCc1cn(-c2ccc(OC(F)(F)F)cc2)nn1` [TJ064983], the MIC was over 10 µg/mL.

`COc1ccc(C2CCN(c3ccc(CNC(=O)c4c(C)nn5ccc(C)cc45)cc3)CC2)cc1` [TJ830140, N-(4-(4-(4-methoxyphenyl)piperidine-1-yl)benzyl)-2,5-dimethyl-pyrazolo [1,5-a] pyridine-3-carboxamide]: the MIC is under 1 µg/mL.

For `Cc1ccn2nc(C)c(C(=O)NCc3cn(-c4ccc(OC(F)(F)F)cc4)nn3)c2c1` [TJ830003], the MIC is over 10 µg/mL.

On to `CCc1nn2ccc(Cl)cc2c1C(=O)NC(C)c1ccc(N2CCC(c3ccc(OC(F)(F)F)cc3)CC2)cc1` (centres unmarked) [TJ830070, 5-chloro-2-ethyl-N-(1-(4-(4-(4-(trifluoromethoxy)phenyl)piperidine-1-yl)phenyl)ethanol) pyrazolo [1,5-a] pyridine-3-carboxamide], for which the MIC was over 10 µg/mL.

Take `Cc1ccc2c(C(=O)NCc3ccc(N4CCC(c5ccc(OC(F)(F)F)cc5)CC4)cc3)c(C)nn2c1` [TJ064854, 2,6-dimethyl-N-(4-(4-(4-(trifluoromethoxy)phenyl)piperidine-1-yl)benzyl) pyrazolo[1,5-a] pyridine-3-carboxamide]: the MIC was under 1 µg/mL.
